Results published in patent US20130225545A1, “PORPHYRIN TREATMENT OF NEURODEGENERATIVE DISEASES” (priority 2010, published 2013).
“Also recorded” adds a separate entry of the source.

Assays:
MPTP mouse model [1] = experiment: Dopamine levels in the striata 7 days after injection of MPTP; type: in vivo, C57BL/6 mice; details: for protection against MPTP-induced striatal dopamine depletion: 1 hr prior to MPTP and daily thereafter, MPTP 15 mg/kg x3 s.c., 7 days
From the text: (§1) Points represent mean+S.E.M. Bars represent mean+S.E.M. n=3-6 mice per group. […] Bars represent mean+S.E.M. n=3-6 mice per group. […] Bars represent mean+S.E.M. #p<0.01 vs MPTP. One-way, ANOVA, n=6 mice per group.
(§2) Points represent mean±S.E.M. Each point is the average of 3-4 animals. […] Bars represent mean+S.E.M. n=6-8 mice per group. […] Bars represent mean+S.E.M. #p<0.01 vs MPTP. One-way, ANOVA, n=6 mice per group.
(§3) Points represent mean+S.E.M. Each point is the average of 4 animals. […] Bars represent mean+S.E.M. n=6 mice per group. […] Bars represent mean+S.E.M. #p<0.01 vs MPTP. One-way, ANOVA, n=6 mice per group.

MPTP mouse model [2] = experiment: Stereological count of TH+ neurons in the substantia nigra pars compacta 7 days after MPTP; type: in vivo, C57BL/6 mice; details: MPTP 15 mg/kg x3 s.c.
Procedure: as §1
Assessment of tyrosine hydroxylase (TH) neurons: Free-floating […] mesencephalic serial sections will be processed with antibodies against TH for immunohistochemistry (Vector Laboratories) and counterstained with cresyl violet. Total numbers of TH and cresyl violet-stained neurons in SNpc is counted stereologically with STEREO INVESTIGATOR software.
Stereological analysis and TH immunohistochemistry: The 40-μm sections including the whole SN pars compacta (SNpc) from bregma −2.60 to −3.80 mm is immunostained with a rabbit antibody to TH (Chemicon, Temecula, Calif.) using the ABC method (ABC Elite Kit, Vector Laboratories, Burlingame, Calif.). The number of TH-positive neurons is quantified using stereo investigator software (MicroBrightfield, Williston, Vt.) by a previously described method (West, Trends in Neurosciences 22:51-61, 1999; Liang et al., J Neurosci 27:4326-4333, 2007).
Bars represent mean+S.E.M. n=6.

[3] = Brain concentration in C57BL/6 mice after a single dose (15 mg/kg) by the i.p. or p.o. route; type: in vivo; details: for penetration of the BBB: 15 mg/kg, i.p. (AEOL11216), i.p. and p.o. (AEOL11203, AEOL1114); for concentration in the brain, stable for 24 hr after i.p. administration / concentration in the brain after i.p. administration / concentration in the brain for 24 hr after p.o. administration / concentration in the brain after p.o. administration: C57BL/6 mice; for concentration in the brain, stable for 24 hr after i.p. administration / concentration in the brain after i.p. administration: single dose 15 mg/kg i.p.; for concentration in the brain after i.p. administration / concentration in the brain after p.o. administration: result in words; for concentration in the brain for 24 hr after p.o. administration / concentration in the brain after p.o. administration: single dose 15 mg/kg p.o.
From the text: (§4) Points represent mean±S.E.M. Each point is the average of 3-4 animals.
as §1, §2, §3

MPTP mouse model [4] = experiment: GSH, GSSG, GSH/GSSG and 3NT/Tyr ratios in ventral midbrain/SN 24 hours after MPTP; type: in vivo, C57/B6 mice; details: for protection against MPTP-induced alteration of 3-NT/tyrosine ratio / protection against MPTP-induced alteration of GSH/GSSG: 24 hours after MPTP
From the text: as §1, §2, §3

[5] = Plasma concentration in C57BL/6 mice after a single dose (15 mg/kg) by the i.p. or p.o. route; type: in vivo; details: for plasma concentration after i.p. administration / plasma concentration after p.o. administration: C57BL/6 mice; for plasma concentration after i.p. administration: single dose 15 mg/kg i.p.; for plasma concentration after p.o. administration: single dose 15 mg/kg p.o.; for bioavailability / pharmacokinetic properties, overall assessment: mice, i.p. and p.o., summary in words
From the text: as §4, §1, §2, §3
Points represent mean+S.E.M. Each point is the average of 4 animals.

[6] = Solubility of the compound for dosing; type: physicochemical; details: result in words
MPTP metabolism = experiment: Striatal MPP+ levels 3 h after MPTP (effects on MPTP metabolism); type: in vivo, mice; details: 15 mg/kg i.p. 1 h before MPTP (15 mg/kg s.c.)
From the text: Bars represent mean+S.E.M. n=4-6 mice per group.

mice [7] = experiment: Open field test after 7 days of dosing; details: 15 mg/kg i.p. daily for 7 days; 3-4 h after last injection
Procedure: (§5) FIG. 15. The histograms of FIGS. 15A-15C appear in the order (left to right): control; MnCl2; AEOL 11114; AEOL 11207; AEOL 11203. Behavioral testing after dosing mice with AEOL11207, AEOL11114B or AEOL11203 (MnCl2 positive control). Mice (6 per group) were divided 5 groups treated with AEOL11207, AEOL11203, AEOL11114B, MnCl2 (all compound dissolved in 5% DMSO) or 5% DMSO alone by 15 mg/kg i.p. daily for a period of 7 days. At the end of treatment, mice were performed the behavioral tests by open field and accelerating rotorod test in 3-4 h after last injection. The total moving distance (FIG. 15A), moving velocity (FIG. 15B) in 5 minutes measured by open field test and the latency (seconds) from acceleration to fall from the rod (FIG. 15C) in the mice 7 days after injection of vehicle, MnCl2, AEOL11114, AEOL11207 and AEOL11203 i.p. (15 mg/kg daily). Bars represent mean+S.E.M. One-way, ANOVA, n=6-8 mice per group.
Open field test: The test is performed in mice treated with AEOL compounds or vehicle. The assessment is conducted over 2-4 days in a square arena mounted within specially designed sound-proof plexiglass shells. Each day a mouse is placed in the center of the open field arena and allowed to freely move about for 20-60 minutes while being tracked by an automated tracking system. […]

mice [8] = experiment: Accelerating rotarod test after 7 days of dosing; details: 15 mg/kg i.p. daily for 7 days; 3-4 h after last injection
Procedure: as §5
Motor behavior assessment by accelerating rotarod test follows the protocol of Hamm et al. (Ferret et al., Hepatology 33:1173-1180, 2001). Rotarod test is performed by using an automated rotarod (Ugo Basile, Comerio, Italy) after AEOLs or vehicle injections. Animals are tested two consecutive daily trials (1 hour apart) with an accelerating mode (15, 20, 25, 30, 35 and 40 rpm) in 240 seconds for total 5 days. The average latency to fall from the rod will be recorded. […]

In the case of `CCCOC(=O)C1=C2C=CC(=N2)C(C(F)(F)F)=c2ccc3[n]2[Mn][n]2c1ccc2C(C(F)(F)F)=C1C=CC(=N1)C=3C(=O)OCCC` [AEOL11216], the “protection against MPTP-induced striatal dopamine depletion” value (MPTP mouse model [1]; 15 mg/kg i.p.) was “did not significantly prevent”, the “protection against MPTP-induced dopaminergic (TH+) neuronal loss in the substantia nigra pars compacta” value (MPTP mouse model [2]; 15 mg/kg i.p.) was “significantly protected” and the “penetration of the BBB” value [3] was “penetrated the BBB”. For the same molecule, the “concentration in the brain, stable for 24 hr after i.p. administration” value [3] was “more than 100 nM”, the “protection against MPTP-induced alteration of 3-NT/tyrosine ratio” value (shortened to “protection … of 3-NT/tyrosine ratio”) (MPTP mouse model [4]; 15 mg/kg x3 daily i.p.) was “significantly protected” and the “protection against MPTP-induced alteration of GSH/GSSG” value (from here on “protection … of GSH/GSSG”) (MPTP mouse model [4]; 15 mg/kg x3 daily i.p.) was “significantly protected”. The “plasma concentration after i.p. administration” value ([5]; result in words) was “high plasma concentrations”.

For `CCCOC(=O)C1=C2C=CC(=N2)C(C(=O)OCCC)=c2ccc3[n]2[Mn][n]2c1ccc2C(C(=O)OCCC)=C1C=CC(=N1)C=3C(=O)OCCC` [AEOL11215], the “concentration in the brain after i.p. administration” value [3] was “not reliably detectable”, the “plasma concentration after i.p. administration” value ([5]; result in words) was “moderate levels” and the “plasma concentration after p.o. administration” value ([5]; result in words) was “not reliably detected”. The “bioavailability / pharmacokinetic properties, overall assessment” value [5] was “poor bioavailability; also recorded: unfavorable pharmacokinetic or oral bioavailability”.

In the case of `COC(=O)C1=C2C=CC(=N2)C(C(=O)OC)=c2ccc3[n]2[Mn+][n]2c1ccc2C(C(=O)OC)=C1C=CC(=N1)C=3C(=O)OC` [AEOL11203], the “protection against MPTP-induced striatal dopamine depletion” value (MPTP mouse model [1]; 15 mg/kg i.p.) was “statistically significant protection”, the “efficacy in the MPTP mouse model, overall assessment” value (MPTP mouse model [1]; summary in words) was “promising efficacy” and the solubility [6] was “good”. For the same molecule, the “effect on striatal MPP+ levels” value (MPTP metabolism) was “none of the AEOL compounds tested altered the levels of MPP+”, the “penetration of the BBB” value [3] was “penetrated the BBB” and the “concentration in the brain, stable for 24 hr after i.p. administration” value [3] was greater than 100 nM. For the same molecule, the “concentration in the brain after i.p. administration” value [3] was “good brain bioavailability”, the “concentration in the brain for 24 hr after p.o. administration” value [3] was roughly 50 nM and the “concentration in the brain after p.o. administration” value [3] was “good brain bioavailability”. For the same molecule, the “protection … of 3-NT/tyrosine ratio” value (MPTP mouse model [4]; 15 mg/kg x3 daily i.p.) was “significantly protected”, the “protection … of GSH/GSSG” value (MPTP mouse model [4]; 15 mg/kg x3 daily i.p.) was “significantly protected” and the “plasma concentration after i.p. administration” value ([5]; result in words) was “relative high”. The “plasma concentration after p.o. administration” value [5] was roughly 5000 nM.

In the case of `[Cl][Mn][Cl]` [MnCl2], the “open field test (total moving distance, moving velocity) versus other groups” value (mice [7]) was “no statistically significant differences” and the “accelerating rotorod test (latency to fall) versus other groups” value (mice [8]) was “no statistically significant differences”.

In the case of `FC(F)(F)C1=C2C=CC(=N2)C(C(F)(F)F)=c2ccc3[n]2[Mn+][n]2c1ccc2C(C(F)(F)F)=C1C=CC(=N1)C=3C(F)(F)F` [AEOL11256], the solubility [6] was “a major issue”, the “effect on striatal MPP+ levels” value (MPTP metabolism) was “none of the AEOL compounds tested altered the levels of MPP+” and the “concentration in the brain after i.p. administration” value [3] was “undetectable”. The “concentration in the brain after p.o. administration” value [3] was “undetectable”, the “plasma concentration after i.p. administration” value ([5]; result in words) was “relatively low” and the “plasma concentration after p.o. administration” value ([5]; result in words) was “relatively low”.

With `COC(=O)c1ccc(C2=C3C=CC(=N3)C(C=O)=c3ccc4[n]3[Mn+][n]3c(ccc32)C(C=O)=C2C=CC(=N2)C=4c2ccc(C(=O)OC)cc2)cc1` [AEOL11209] the solubility [6] was “a major issue; also recorded: solubility issues”, the “concentration in the brain after i.p. administration” value [3] was “variable and relatively low” and the “concentration in the brain after p.o. administration” value [3] was “variable and relatively low”. For the same molecule, the “plasma concentration after i.p. administration” value ([5]; result in words) was “low but achievable” and the “bioavailability / pharmacokinetic properties, overall assessment” value [5] was “unfavorable pharmacokinetic or oral bioavailability; also recorded: poor bioavailability”.

In the case of `COC(=O)c1ccc(C2=C3C=CC(=N3)C(C(F)(F)F)=c3ccc4[n]3[Mn+][n]3c2ccc3C(C(F)(F)F)=C2C=CC(=N2)C=4c2ccc(C(=O)OC)cc2)cc1` [AEOL1114], the “protection against MPTP-induced striatal dopamine depletion” value (MPTP mouse model [1]; 15 mg/kg i.p.) was “statistically significant protection”, the “protection against MPTP-induced striatal dopamine depletion” value (MPTP mouse model [1]; 15 mg/kg p.o.) was “statistically significant protection” and the solubility [6] was “favorable solubility properties”. The “protection against MPTP-induced dopaminergic (TH+) neuronal loss in the substantia nigra pars compacta” value (MPTP mouse model [2]; 15 mg/kg i.p.) was “prevents MPTP-induced loss of TH+ dopamine neurons”, the “protection against MPTP-induced dopaminergic (TH+) neuronal loss in the substantia nigra pars compacta” value (MPTP mouse model [2]; 15 mg/kg p.o.) was “prevents MPTP-induced loss of TH+ dopamine neurons” and the “effect on striatal MPP+ levels” value (MPTP metabolism) was “none of the AEOL compounds tested altered the levels of MPP+”. The “penetration of the BBB” value [3] was “penetrated the BBB”, the “concentration in the brain, stable for 24 hr after i.p. administration” value [3] was greater than 200 nM and the “concentration in the brain for 24 hr after p.o. administration” value [3] was greater than 200 nM. The “protection … of 3-NT/tyrosine ratio” value (MPTP mouse model [4]; 15 mg/kg x3 daily i.p.) was “significantly protected”, the “protection … of GSH/GSSG” value (MPTP mouse model [4]; 15 mg/kg x3 daily i.p.) was “significantly protected” and the “protection … of 3-NT/tyrosine ratio” value (MPTP mouse model [4]; 15 mg/kg x3 daily p.o.) was “significantly protected”. For the same molecule, the “protection … of GSH/GSSG” value (MPTP mouse model [4]; 15 mg/kg x3 daily p.o.) was “significantly protected”, the “efficacy against MPTP-induced oxidative stress, overall assessment” value (MPTP mouse model [4]; summary in words) was “efficacy against MPTP-induced oxidative stress” and the “plasma concentration after i.p. administration” value [5] was roughly 20000 nM. The “bioavailability / pharmacokinetic properties, overall assessment” value [5] was “good pharmacokinetic properties, brain penetration, oral bioavailability”.

For `COC(=O)c1c2nc(c(C(F)(F)F)c3ccc([n-]3)c(C(=O)OC)c3nc(c(C(F)(F)F)c4ccc1[n-]4)C=C3)C=C2.[Cl-].[Mn+3]` [AEOL11207], the “effect on striatal MPP+ levels” value (MPTP metabolism) was “none of the AEOL compounds tested altered the levels of MPP+”.
